# Source: patent US5679695A, “Aryl and heteroaryl compounds having anti-retrovirus activity” (The University of Connecticut, priority 1995, dated 1997)
# Legend:
# [1] = tested on: Rauscher Murine Leukemia Virus (MLV); experiment: Rauscher MuLV UV-XC plaque assay; format: cell-based
# Experimental: (§1) One such method is used to determine the effectiveness of representative compounds and compositions of the present invention in the Rauscher and LP-BMS Murine Leukemia Virus (MLV) In Vitro Assays.
# (§2) SC-1 cells were grown as monolayers in 6-well tissue culture plates (Falcon). The a test compound was added to the cultures at the time of virus inoculation (approximately 24 hours after the cells were seeded) and was present for 3 days, at which time the cultures were irradiated with UV light. All compounds were solubilized in DMSO prior to dilution in grown medium. The highest concentration of DMSO present in the cultures was 0.05%. The test cultures (triplicate cultures per drug concentrate) each contained 2 ml of test compound diluted in growth medium (Eagle's minimum) essential medium (EMEM) supplemented with 5% heat-inactivated fetal bovine serum (FBS) and 0.5 ml of the virus suspension diluted to produce a countable number of plaques per well. The six virus control cultures contained 2 ml of medium and 0.5 ml of the virus suspension. NSC606170(ddC) was included as a positive control. drug. Drug cytotoxicity control cultures (containing test compound) but no virus and cell control culture (containing no test compound) or virus were included in the assay. On day 3 post-virus inoculation, the cultures were irradiated and XC cells were added. Three days after V-irradiation, the cultures were fixed with formalin and stained with 0.1% crystal violet. The plaques were counted with the aid of a dissection microscope.
# (§3) Using the procedure, the following data is generated from representative compounds of the presnet invention.
# [2] = tested on: LP-BM5 MuLV; experiment: LP-BM5 MuLV UV-XC plaque assay; format: cell-based, Murine Leukemia Virus; details: for inhibition at 100 µM / inhibition at 10 µM / inhibition at 1 µM / inhibition at 0.1 µM / inhibition at 0.01 µM: Murine leukemia virus, SC-1, read-out: % Plaque Reduction
# Experimental: as §1, §2, §3
# [3] = Dye conversion (MTT formazan) assay of drug-induced cytotoxicity; format: cell-based; details: mouse, sc-1 cells; for cytotoxicity at 72 h, 1000 µM / viability at 72 h, 1000 µM: 1 × 10^-3 M; for cytotoxicity at 72 h, 1000 µM / cytotoxicity at 72 h, 100 µM / cytotoxicity at 72 h, 10 µM / cytotoxicity at 72 h, 1 µM / cytotoxicity at 72 h, 0.1 µM / cytotoxicity at 72 h, 0.01 µM: read-out: % Reduction; for viability at 72 h, 1000 µM / viability at 72 h, 100 µM / viability at 72 h, 10 µM / viability at 72 h, 1 µM / viability at 72 h, 0.1 µM / viability at 72 h, 0.01 µM: read-out: % of Control; for cytotoxicity at 72 h, 100 µM / viability at 72 h, 100 µM: 1 × 10^-4 M; for cytotoxicity at 72 h, 10 µM / viability at 72 h, 10 µM: 1 × 10^-5 M; for cytotoxicity at 72 h, 1 µM / viability at 72 h, 1 µM: 1 × 10^-6 M; for cytotoxicity at 72 h, 0.1 µM / viability at 72 h, 0.1 µM: 1 × 10^-7 M; for cytotoxicity at 72 h, 0.01 µM / viability at 72 h, 0.01 µM: 1 × 10^-8 M
# Experimental: (§4) A dye conversion assay to determine drug-induced cytotoxicity was performed. This assay is based on the conversion of MTT to a formazan product in living cells. This conversion results in a color change which can be detected spectrophotometrically. A 96-well tissue culture plate was seeded with […] per well at the time that the 6-well plates were seeded for the UV-XC plaque assay. The following day, the medium was decanted and the cell control cultures received 100 ul of medium. The drug controls received 80 ul of drug and 20 ul of medium such that the final concentration of drug was equivalent to that used in the 6-well plates. On day 3 after addition of the drug, 50 ul of a 2 mg/ml solution of MTT in EMEM with 5% heat-inactivated FBS were added each well. The culture was incubated for 7 hours and 100 ul of a 10% SDS: 0.01 N HCL solution was added to each well. The culture was incubated overnight and the following morning the optical density (O.D.) was read at 570 nm wavelength on a Perkin-Elmer spectrophotometer. The percent reduction in the drug-treated cell. O.D. reading compared to the control cell O.D. reading was calculated.
# as §3
# [4] = tested on: SC-1 cells; experiment: as above; format: cell-based; details: 570 nm
# Experimental: as §4, §3
# [5] = Murine leukemia virus, SC-1, 1 × 10^-4 M, read-out: % Plaque Reduction
# [6] = Murine leukemia virus, SC-1, 1 × 10^-5 M, read-out: % Plaque Reduction
# [7] = Murine leukemia virus, SC-1, 1 × 10^-6 M, read-out: % Plaque Reduction
# [8] = Murine leukemia virus, SC-1, 1 × 10^-7 M, read-out: % Plaque Reduction
# [9] = Murine leukemia virus, SC-1, 1 × 10^-8 M, read-out: % Plaque Reduction
smiles,measurement,setting,value
"O=[N+]([O-])c1ccccc1S(=O)(=O)c1ccccc1 [Compound 1, 1-Nitro-2-(phenylsulfonyl)benzene]",Mean plaque count,[1]; 1 × 10^-4 M,46
same,"Plaque count, replicate #1",[1]; 1 × 10^-4 M,43
same,"Plaque count, replicate #2",[1]; 1 × 10^-4 M,48
same,"Plaque count, replicate #3",[1]; 1 × 10^-4 M,46
same,Mean plaque count,[1]; 1 × 10^-5 M,53
same,"Plaque count, replicate #1",[1]; 1 × 10^-5 M,58
same,"Plaque count, replicate #2",[1]; 1 × 10^-5 M,42
same,"Plaque count, replicate #3",[1]; 1 × 10^-5 M,60
same,Mean plaque count,[1]; 1 × 10^-6 M,56
same,"Plaque count, replicate #1",[1]; 1 × 10^-6 M,71
same,"Plaque count, replicate #2",[1]; 1 × 10^-6 M,43
same,"Plaque count, replicate #3",[1]; 1 × 10^-6 M,53
same,Mean plaque count,[1]; 1 × 10^-7 M,64
same,"Plaque count, replicate #1",[1]; 1 × 10^-7 M,53
same,"Plaque count, replicate #2",[1]; 1 × 10^-7 M,69
same,"Plaque count, replicate #3",[1]; 1 × 10^-7 M,71
same,Mean plaque count,[1]; 1 × 10^-8 M,65
same,"Plaque count, replicate #1",[1]; 1 × 10^-8 M,64
same,"Plaque count, replicate #2",[1]; 1 × 10^-8 M,55
same,"Plaque count, replicate #3",[1]; 1 × 10^-8 M,76
same,inhibition at 100 µM,[1]; [5],26%
same,inhibition at 10 µM,[1]; [6],14%
same,inhibition at 1 µM,[1]; [7],10%
same,inhibition at 0.1 µM,[1]; [8],0%
same,inhibition at 0.01 µM,[1]; [9],0%
same,Mean plaque count,[2]; 1 × 10^-4 M,254
same,"Plaque count, replicate #1",[2]; 1 × 10^-4 M,219
same,"Plaque count, replicate #2",[2]; 1 × 10^-4 M,216
same,"Plaque count, replicate #3",[2]; 1 × 10^-4 M,328
same,Mean plaque count,[2]; 1 × 10^-5 M,261
same,"Plaque count, replicate #1",[2]; 1 × 10^-5 M,335
same,"Plaque count, replicate #2",[2]; 1 × 10^-5 M,216
same,"Plaque count, replicate #3",[2]; 1 × 10^-5 M,232
same,Mean plaque count,[2]; 1 × 10^-6 M,255
same,"Plaque count, replicate #1",[2]; 1 × 10^-6 M,337
same,"Plaque count, replicate #2",[2]; 1 × 10^-6 M,218
same,"Plaque count, replicate #3",[2]; 1 × 10^-6 M,210
same,Mean plaque count,[2]; 1 × 10^-7 M,207
same,"Plaque count, replicate #1",[2]; 1 × 10^-7 M,201
same,"Plaque count, replicate #2",[2]; 1 × 10^-7 M,192
same,"Plaque count, replicate #3",[2]; 1 × 10^-7 M,228
same,Mean plaque count,[2]; 1 × 10^-8 M,246
same,"Plaque count, replicate #1",[2]; 1 × 10^-8 M,222
same,"Plaque count, replicate #2",[2]; 1 × 10^-8 M,204
same,"Plaque count, replicate #3",[2]; 1 × 10^-8 M,311
same,inhibition at 100 µM,[2]; 1 × 10^-4 M,11%
same,inhibition at 10 µM,[2]; 1 × 10^-5 M,9%
same,inhibition at 1 µM,[2]; 1 × 10^-6 M,11%
same,inhibition at 0.1 µM,[2]; 1 × 10^-7 M,27%
same,inhibition at 0.01 µM,[2]; 1 × 10^-8 M,14%
same,"cytotoxicity at 72 h, 1000 µM",[3],45%
same,"viability at 72 h, 1000 µM",[3],55%
same,"cytotoxicity at 72 h, 100 µM",[3],15%
same,"viability at 72 h, 100 µM",[3],85%
same,"cytotoxicity at 72 h, 10 µM",[3],3%
same,"viability at 72 h, 10 µM",[3],97%
same,"cytotoxicity at 72 h, 1 µM",[3],2%
same,"viability at 72 h, 1 µM",[3],98%
same,"cytotoxicity at 72 h, 0.1 µM",[3],0%
same,"viability at 72 h, 0.1 µM",[3],101%
same,"cytotoxicity at 72 h, 0.01 µM",[3],1%
same,"viability at 72 h, 0.01 µM",[3],99%
same,O.D. Reading,[4]; 1 × 10^-3 M,0.851
same,O.D. Reading,[4]; 1 × 10^-4 M,1.320
same,O.D. Reading,[4]; 1 × 10^-5 M,1.504
same,O.D. Reading,[4]; 1 × 10^-6 M,1.522
same,O.D. Reading,[4]; 1 × 10^-7 M,1.566
same,O.D. Reading,[4]; 1 × 10^-8 M,1.530
"Cc1ccc(S(=O)(=O)c2ccccc2[N+](=O)[O-])cc1 [Compound 2, 1-(4-Methylphenylsulfonyl)-2-nitrobenzene]",Mean plaque count,[1]; 1 × 10^-3 M,19
same,"Plaque count, replicate #1",[1]; 1 × 10^-3 M,20
same,"Plaque count, replicate #2",[1]; 1 × 10^-3 M,20
same,"Plaque count, replicate #3",[1]; 1 × 10^-3 M,17
same,Mean plaque count,[1]; 1 × 10^-4 M,8
same,"Plaque count, replicate #1",[1]; 1 × 10^-4 M,9
same,"Plaque count, replicate #2",[1]; 1 × 10^-4 M,8
same,"Plaque count, replicate #3",[1]; 1 × 10^-4 M,8
same,Mean plaque count,[1]; 1 × 10^-5 M,64
same,"Plaque count, replicate #1",[1]; 1 × 10^-5 M,60
same,"Plaque count, replicate #2",[1]; 1 × 10^-5 M,69
same,"Plaque count, replicate #3",[1]; 1 × 10^-5 M,64
same,Mean plaque count,[1]; 1 × 10^-6 M,61
same,"Plaque count, replicate #1",[1]; 1 × 10^-6 M,72
same,"Plaque count, replicate #2",[1]; 1 × 10^-6 M,53
same,"Plaque count, replicate #3",[1]; 1 × 10^-6 M,5
same,Mean plaque count,[1]; 1 × 10^-7 M,56
same,"Plaque count, replicate #1",[1]; 1 × 10^-7 M,52
same,"Plaque count, replicate #2",[1]; 1 × 10^-7 M,57
same,"Plaque count, replicate #3",[1]; 1 × 10^-7 M,60
same,Mean plaque count,[1]; 1 × 10^-8 M,60
same,"Plaque count, replicate #1",[1]; 1 × 10^-8 M,62
same,"Plaque count, replicate #2",[1]; 1 × 10^-8 M,56
same,"Plaque count, replicate #3",[1]; 1 × 10^-8 M,63
same,inhibition at 1000 µM,"[1]; Murine leukemia virus, SC-1, 1 × 10^-3 M, read-out: % Plaque Reduction",69%
same,inhibition at 100 µM,[1]; [5],87%
same,inhibition at 10 µM,[1]; [6],0%
same,inhibition at 1 µM,[1]; [7],2%
same,inhibition at 0.1 µM,[1]; [8],9%
same,inhibition at 0.01 µM,[1]; [9],3%
same,Mean plaque count,[2]; 1 × 10^-3 M,130
same,"Plaque count, replicate #1",[2]; 1 × 10^-3 M,162
same,"Plaque count, replicate #2",[2]; 1 × 10^-3 M,123
same,"Plaque count, replicate #3",[2]; 1 × 10^-3 M,104
same,Mean plaque count,[2]; 1 × 10^-4 M,50
same,"Plaque count, replicate #1",[2]; 1 × 10^-4 M,43
same,"Plaque count, replicate #2",[2]; 1 × 10^-4 M,37
same,"Plaque count, replicate #3",[2]; 1 × 10^-4 M,70
same,Mean plaque count,[2]; 1 × 10^-5 M,245
same,"Plaque count, replicate #1",[2]; 1 × 10^-5 M,265
same,"Plaque count, replicate #2",[2]; 1 × 10^-5 M,204
same,"Plaque count, replicate #3",[2]; 1 × 10^-5 M,267
same,Mean plaque count,[2]; 1 × 10^-6 M,264
same,"Plaque count, replicate #1",[2]; 1 × 10^-6 M,270
same,"Plaque count, replicate #2",[2]; 1 × 10^-6 M,217
same,"Plaque count, replicate #3",[2]; 1 × 10^-6 M,304
same,Mean plaque count,[2]; 1 × 10^-7 M,299
same,"Plaque count, replicate #1",[2]; 1 × 10^-7 M,327
same,"Plaque count, replicate #2",[2]; 1 × 10^-7 M,269
same,"Plaque count, replicate #3",[2]; 1 × 10^-7 M,301
same,Mean plaque count,[2]; 1 × 10^-8 M,318
same,"Plaque count, replicate #1",[2]; 1 × 10^-8 M,299
same,"Plaque count, replicate #2",[2]; 1 × 10^-8 M,340
same,"Plaque count, replicate #3",[2]; 1 × 10^-8 M,314
same,inhibition at 100 µM,[2]; 1 × 10^-4 M,82%
same,inhibition at 10 µM,[2]; 1 × 10^-5 M,14%
same,inhibition at 1 µM,[2]; 1 × 10^-6 M,8%
same,inhibition at 0.1 µM,[2]; 1 × 10^-7 M,0%
same,inhibition at 0.01 µM,[2]; 1 × 10^-8 M,0%
same,"cytotoxicity at 72 h, 1000 µM",[3],31%
same,"viability at 72 h, 1000 µM",[3],69%
same,"cytotoxicity at 72 h, 100 µM",[3],13%
same,"viability at 72 h, 100 µM",[3],87%
same,"cytotoxicity at 72 h, 10 µM",[3],8%
same,"viability at 72 h, 10 µM",[3],92%
same,"cytotoxicity at 72 h, 1 µM",[3],8%
same,"viability at 72 h, 1 µM",[3],92%
same,"cytotoxicity at 72 h, 0.1 µM",[3],8%
same,"viability at 72 h, 0.1 µM",[3],92%
same,"cytotoxicity at 72 h, 0.01 µM",[3],9%
same,"viability at 72 h, 0.01 µM",[3],91%
same,O.D. Reading,[4]; 1 × 10^-3 M,1.066
same,O.D. Reading,[4]; 1 × 10^-4 M,1.345
same,O.D. Reading,[4]; 1 × 10^-5 M,1.425
same,O.D. Reading,[4]; 1 × 10^-6 M,1.418
same,O.D. Reading,[4]; 1 × 10^-7 M,1.429
same,O.D. Reading,[4]; 1 × 10^-8 M,1.411
